The series concerns Streptomyces venezuelae ATCC 10712. Put plainly: Confrontation assay B. velezensis GA1 / S. venezuelae on REM plate, UPLC-MS metabolite profiling of the agar. The following applies: gelified REM, 3 days at 26°C. As for the experimental part: Confrontation assays were performed on square Petri dishes (12 × 12 cm) with 40 mL of REM solid medium at 26°C (REM supplemented with 14 g/L of agar).
S. venezuelae ATCC 10712 was inoculated as stripes (1 × 12 cm) in the middle of the plate with 40 µL of spore suspension (10^7 spores/mL) and spread with a cotton swab. Next, B. velezensis GA1 cells were collected from fresh precultures as described and adjusted to OD600 nm 0.1. Then, 5 µL of B. velezensis GA1 suspension was spotted at 1 cm of the Streptomyces line. Control plates were done following the same procedure without the inoculation of either Bacillus or Streptomyces. Plates were then incubated for 3 days at 26°C in the dark. Pictures of the plates were then captured using a CoolPix camera (NIKKOR ×60 wide optical zoom extra-low dispersion vibration reduction 4.3–258.0 mm 1:33 to 6.5).
The extraction of the metabolites from the agar was performed as follows. For the confrontation experiment, we precisely sampled the area of agar (2 × 1 cm) near the colony of Bacillus or Streptomyces (the confrontation zone is 1 cm wide) with standardized plugs. For the in planta, we sampled the agar area (1 × 1 cm) near the tomato roots. In both cases, the agar samples were transferred to Eppendorf tubes and placed for 24 h at −20°C. Then, the agar was thawed at room temperature and centrifuged for 10 min at 13,000 rpm. The supernatants were then collected and filtered (0.22-µm pore size filters) before UPLC-MS analysis.
All UPLC-MS analyses were performed using an Agilent 1290 Infinity II coupled with a diode array detector and a mass detector (Jet Stream ESI-Q-TOF 6530) in positive mode with the parameters set up as follows: capillary voltage of 3.5 kV, nebulizer pressure of 35 lb/in^2, drying gas of 8 L/min, drying gas temperature of 300°C, flow rate of sheath gas of 11 L/min, sheath gas temperature of 350°C, fragmentor voltage of 175 V, skimmer voltage of 65 V, and octopole radiofrequency of 750 V. Accurate mass spectra were recorded in the m/z range of 300–1,700. For untargeted MS/MS, we used the same MS1 parameters as described. We added MS2 untargeted acquisition mode with the parameters as follows: MS/MS range 50–1,700 m/z; MS/MS scan rate 3 spectra/s; isolation width MS/MS medium (approx. 4 AMU), Decision Engine Native; fixed collision energies of 25 and 40 V for surfactin, 50 V for iturin, and 60 V for fengycin experiments; precursor selection: three for the surfactin experiment, four for the iturin and fengycin experiments, threshold 1,500 (Abs), isotope model common, active exclusion after two spectra and release after 0.5 min, sorting the precursors by charge state then abundance (charge state preference 1). For targeted MS/MS, we used the same MS1 parameters MS/MS range of 50–1,700 m/z or 50–3,200 (when required for Pseudomonas CLPs with mass >1,700 Da), MS/MS scan rate 3 spectra/s, isolation width MS/MS narrow (approx. 1.3 amu), and fixed collision energies 20, 40, and 60V. In all experiments, a C18 Acquity UPLC ethylene bridged hybrid column (2.1 mm × 50 mm × 1.7 µm; Waters Corporation, Milford, MA, USA) was used at a flow rate of 0.6 mL/min and a temperature of 40°C. The injection volume was 20 µL, and the diode array detector scanned a wavelength spectrum between 190 and 600 nm. Unless otherwise mentioned, a gradient of acidified water (0.1% formic acid) (solvent A) and of acidified acetonitrile (0.1% formic acid) (solvent B) was used as mobile phase with a constant flow rate of 0.6 mL/min, starting at 10% B and rising to 100% B in 20 min. Solvent B was kept at 100% for 4 min before going back to the initial ratio. MassHunter Workstation (version 10.0) and ChemStation software were used for data collection and analysis. For untargeted analysis of iturin and fengycin degradation products, we used the same solvent and flow rate, starting at 10% B to 20% in 2 min, then rising to 50% B at 14 min and 100% B at 25 min, followed by 100% B and 5 at 10% B at 6 min.

Take iturin: the “shorter CLP fragment detected in the confrontation zone but not in Bv monoculture” value (UPLC-MS, MS/MS) is “loss of asparagine in position 3”. Also, under “agar extract of confrontation zone, UPLC-Q-TOF-MS peak areas, three biological replicates”, the “abundance of the CLP in the confrontation zone compared with monocultures” value is recorded as “decrease in the abundance”.

The values above are taken from publication PMC10783051 (Microbiology Spectrum, 2023).
